Source: the Kinase Knowledgebase extract (Sharma et al. 2016)

biological target: MAPK14 (UniProt Q16539); experiment: Assessment of MAPK14 Kinase Activity Using Spectrophotometric Assay; settings: not given
Sequence (Q16539 whole entry, looked up): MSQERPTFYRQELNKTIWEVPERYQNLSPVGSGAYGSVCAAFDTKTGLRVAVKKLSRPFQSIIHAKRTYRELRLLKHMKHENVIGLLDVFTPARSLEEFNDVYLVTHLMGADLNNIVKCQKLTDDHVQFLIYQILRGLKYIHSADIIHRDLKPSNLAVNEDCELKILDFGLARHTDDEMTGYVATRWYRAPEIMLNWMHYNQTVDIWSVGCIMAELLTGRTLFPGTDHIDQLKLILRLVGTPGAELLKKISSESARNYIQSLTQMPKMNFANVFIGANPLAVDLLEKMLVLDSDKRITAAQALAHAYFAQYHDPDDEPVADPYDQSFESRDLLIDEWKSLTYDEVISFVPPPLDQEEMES

| IC50 | SMILES |
| --- | --- |
| 30 nM | O=C(O)CCc1ccc(-n2nc(-c3cccs3)cc2NC(=O)Nc2cccc(Cl)c2Cl)cc1 |
| 150 nM | CC(O)c1cc(-n2nc(C(C)(C)C)cc2NC(=O)Nc2cccc(Cl)c2Cl)cc2ccccc12 (centres undefined) |
| 37 nM | O=C(Nc1cccc(Cl)c1Cl)Nc1cc(-c2ccccc2F)nn1-c1ccc(CC(=O)N2CC[C@H](CO)C2)cc1 |
| 14 nM | CC(C)(C)c1cc(NC(=O)Nc2cccc(Cl)c2Cl)n(-c2ccc(CCC(=O)O)cc2)n1 |
| 22 nM | CC(C)(C)c1cc(NC(=O)Nc2cccc(Cl)c2Cl)n(-c2cccc(CC(=O)O)c2)n1 |

The next lines start with the compound.

| SMILES | IC50 |
| --- | --- |
| CC(C)(C)c1cc(NC(=O)Nc2cccc(Cl)c2)n(-c2cccc(CN)c2)n1 | 110 nM |
| COc1cccc(-n2nc(C(C)(C)C)cc2NC(=O)Nc2cccc(Br)c2)c1 | 354 nM |
| CC(C)(C)c1cc(NC(=O)Nc2cccc3c2C=NC3=O)n(-c2cccc(CC(N)=O)c2)n1 | 120 nM |
| CN1C(=O)C(c2cccc(NC(=O)Nc3cc(C(C)(C)C)nn3-c3ccc4c(c3)CCN4)c2)C=C2C=NC=NC21 (centres undefined) | 13 nM |
| CN1C(=O)C(c2cccc(NC(=O)Nc3cc(C(C)(C)C)nn3-c3ccc4c(c3)CCN4S(C)(=O)=O)c2)C=C2C=NC=NC21 (centres undefined) | 28 nM |

same assay, conditions: concentration not given here

| inhibition | SMILES |
| --- | --- |
| 90% | Cc1ccc(NC(=O)Nc2cc(C(C)(C)C)nn2-c2cccc(CC(N)=O)c2)cc1Nc1ncccn1 |
| 58% | CC(C)(C)c1cc(NC(=O)N2=CC=C3C=CC=CC3=C2)n(n1)c4cccc(CCC(=O)O)c4 |
| 57% | CC(C)(C)c1cc(NC(=O)Nc2cccc(-c3ncccn3)c2)n(-c2cccc(CC(N)=O)c2)n1 |
| 82% | NC(=O)Cc1cccc(-n2nc(C3CCCC3)cc2NC(=O)Nc2ccc(-c3cccc4c3C=NC4=O)cc2)c1 |
